Six compounds from PubChem BioAssay AID1259407 (Chemical Carcinogenesis Research Information System (CCRIS), 2018) can be followed below.

SMILES strings stand for the structures. Calls of active or inactive are those of the source. The rule behind the calls is not given here.

The subject of this data set is CCRIS mutagenicity, Ames/micronucleus/aberration tests. Description: CCRIS mutagenicity studies.
[1] abbreviates: Test System: AMES SALMONELLA TYPHIMURIUM, Strain/Indicator: TA98, Metabolic Activation: HAMSTER, LIVER, S-9, AROCLOR 1254 (10%), Method: PREINCUBATION
Where [2] appears, read: Test System: AMES SALMONELLA TYPHIMURIUM, Strain/Indicator: TA98, Metabolic Activation: NONE, Method: PREINCUBATION
[3] abbreviates: Test System: AMES SALMONELLA TYPHIMURIUM, Strain/Indicator: TA98, Metabolic Activation: RAT, LIVER, S-9, AROCLOR 1254 (10%), Method: PREINCUBATION
Setting [4] is: Test System: AMES SALMONELLA TYPHIMURIUM, Strain/Indicator: TA100, Metabolic Activation: HAMSTER, LIVER, S-9, AROCLOR 1254 (10%), Method: PREINCUBATION
Setting [5] is: Test System: AMES SALMONELLA TYPHIMURIUM, Strain/Indicator: TA100, Metabolic Activation: NONE, Method: PREINCUBATION
[6] abbreviates: Test System: AMES SALMONELLA TYPHIMURIUM, Strain/Indicator: TA100, Metabolic Activation: RAT, LIVER, S-9, AROCLOR 1254 (10%), Method: PREINCUBATION
Setting [7] is: Test System: AMES SALMONELLA TYPHIMURIUM, Strain/Indicator: TA1535, Metabolic Activation: NONE, Method: PREINCUBATION
[8] abbreviates: Test System: AMES SALMONELLA TYPHIMURIUM, Strain/Indicator: TA1535, Metabolic Activation: RAT, LIVER, S-9, AROCLOR 1254 (10%), Method: PREINCUBATION
The mark [9] stands for this setting: Test System: AMES SALMONELLA TYPHIMURIUM, Strain/Indicator: TA1537, Metabolic Activation: HAMSTER, LIVER, S-9, AROCLOR 1254 (10%), Method: PREINCUBATION
Where [10] appears, read: Test System: AMES SALMONELLA TYPHIMURIUM, Strain/Indicator: TA1537, Metabolic Activation: NONE, Method: PREINCUBATION
Where [11] appears, read: Test System: AMES SALMONELLA TYPHIMURIUM, Strain/Indicator: TA1537, Metabolic Activation: RAT, LIVER, S-9, AROCLOR 1254 (10%), Method: PREINCUBATION
The mark [12] stands for this setting: Test System: AMES SALMONELLA TYPHIMURIUM, Strain/Indicator: TA98, Metabolic Activation: NONE, Method: STANDARD PLATE.
Where [13] appears, read: Test System: AMES SALMONELLA TYPHIMURIUM, Strain/Indicator: TA98, Metabolic Activation: RAT, LIVER, S-9, AROCLOR 1254, Method: STANDARD PLATE.
[14] abbreviates: Test System: AMES SALMONELLA TYPHIMURIUM, Strain/Indicator: TA100, Metabolic Activation: NONE, Method: STANDARD PLATE.
Where [15] appears, read: Test System: AMES SALMONELLA TYPHIMURIUM, Strain/Indicator: TA100, Metabolic Activation: RAT, LIVER, S-9, AROCLOR 1254, Method: STANDARD PLATE.

In the case of `Cc1ccc(NC(N)=O)cc1`, the mutagenic call is, setting by setting: under setting [1], “inactive; negative”; under setting [2], “inactive; negative”; under setting [3], “inactive; negative”; under setting [4], “inactive; negative”; under setting [5], “inactive; negative”; under setting [6], “inactive; negative”. Moreover, the mutagenic call (Test System: AMES SALMONELLA TYPHIMURIUM, Strain/Indicator: TA1535, Metabolic Activation: HAMSTER, LIVER, S-9, AROCLOR 1254 (10%), Method: PREINCUBATION) was “inactive; negative”; the mutagenic call under setting [7] was “inactive; negative”; the mutagenic call under setting [8] was “inactive; negative”; the mutagenic call under setting [9] was “inactive; negative”; the mutagenic call under setting [10] is “inactive; negative”; the mutagenic call under setting [11] is “inactive; negative”.
For `NCCNCCO`, the mutagenic call under setting [1] was “inactive; negative”; the mutagenic call under setting [2] is “inactive; negative”; the mutagenic call under setting [12] is “inactive; negative”; the mutagenic call under setting [3] was “inactive; negative”; the mutagenic call under setting [13] is “inactive; negative”; the mutagenic call (Test System: AMES SALMONELLA TYPHIMURIUM, Strain/Indicator: TA98, Metabolic Activation: RAT, LIVER, S-9, PCB, Method: PREINCUBATION) was “inactive; negative”. For the same compound, the mutagenic call under setting [4] is “inactive; negative”; the mutagenic call under setting [5] was “inactive; negative”; the mutagenic call under setting [14] was “inactive; negative”; the mutagenic call under setting [6] was “inactive; negative”; the mutagenic call under setting [15] was “inactive; negative”; the mutagenic call (Test System: AMES SALMONELLA TYPHIMURIUM, Strain/Indicator: TA100, Metabolic Activation: RAT, LIVER, S-9, PCB, Method: PREINCUBATION) is “inactive; negative”. Further, the mutagenic call runs as follows: (Test System: AMES SALMONELLA TYPHIMURIUM, Strain/Indicator: TA1535, Metabolic Activation: HAMSTER, LIVER, S-9, AROCLOR 1254 (10 OR 12%), Method: PREINCUBATION) “active; positive”; under setting [7], “inactive; negative”; (Test System: AMES SALMONELLA TYPHIMURIUM, Strain/Indicator: TA1535, Metabolic Activation: NONE, Method: STANDARD PLATE) “inactive; negative”; under setting [8], “active; positive”; (Test System: AMES SALMONELLA TYPHIMURIUM, Strain/Indicator: TA1535, Metabolic Activation: RAT, LIVER, S-9, AROCLOR 1254, Method: STANDARD PLATE) “inactive; negative”; under setting [9], “inactive; negative”. Moreover, the mutagenic call is, setting by setting: under setting [10], “inactive; negative”; (Test System: AMES SALMONELLA TYPHIMURIUM, Strain/Indicator: TA1537, Metabolic Activation: NONE, Method: STANDARD PLATE) “inactive; negative”; under setting [11], “inactive; negative”; (Test System: AMES SALMONELLA TYPHIMURIUM, Strain/Indicator: TA1537, Metabolic Activation: RAT, LIVER, S-9, AROCLOR 1254, Method: STANDARD PLATE) “inactive; negative”; (Test System: AMES SALMONELLA TYPHIMURIUM, Strain/Indicator: TA1538, Metabolic Activation: NONE, Method: STANDARD PLATE) “inactive; negative”; (Test System: AMES SALMONELLA TYPHIMURIUM, Strain/Indicator: TA1538, Metabolic Activation: RAT, LIVER, S-9, AROCLOR 1254, Method: STANDARD PLATE) “inactive; negative”. Further, the mutagenic call (Test System: CHINESE HAMSTER OVARY, Strain/Indicator: CHO (HGPRT)/6-THIOGUANINE, Metabolic Activation: NONE) was “inactive; negative”; the mutagenic call (Test System: CHINESE HAMSTER OVARY, Strain/Indicator: CHO (HGPRT)/6-THIOGUANINE, Metabolic Activation: RAT, LIVER, S-9, AROCLOR 1254) was “inactive; negative”; the mutagenic call (Test System: UDS RAT HEPATOCYTES, Strain/Indicator: THY INCORP, Metabolic Activation: NONE, Method: SCINTILLATION SPECTROMETRY) is “inactive; negative”.
As for `COC1=CC(=O)C(=O)C(C(C)(C)C)=C1`, the mutagenic call runs as follows: under setting [12], “inactive; negative”; under setting [13], “inactive; negative”; under setting [14], “inactive; negative”; under setting [15], “inactive; negative”.
On to `CCCOS(=O)(=O)c1ccccc1`, for which the mutagenic call runs as follows: (End Point: IN VITRO MICRONUCLEUS, Test System: MOUSE LYMPHOMA L5178Y CELLS, Metabolic Activation: NONE) “inactive; negative; positive only at highly/excessively cytotoxic doses”; (End Point: IN VITRO MICRONUCLEUS, Test System: MOUSE LYMPHOMA L5178Y CELLS, Metabolic Activation: RAT, LIVER, S-9) “inactive; negative; authors report results as weakly positive”; under setting [14], “active; positive”; (Test System: AMES SALMONELLA TYPHIMURIUM, Strain/Indicator: TA100, Metabolic Activation: RAT, LIVER, S-9, Method: STANDARD PLATE) “active; positive”.
Take `COc1ccc(NC(C)=O)cc1N`: the mutagenic call (End Point: IN VITRO CHROMOSOMAL ABERRATIONS, Test System: CHL CELLS, Metabolic Activation: RAT, LIVER, S-9, SODIUM PHENOBARBITAL AND 5,6-BENZOFLAVONE) was “active; positive (structural changes); authors report equivocal results for ploidy chang”; the mutagenic call under setting [2] was “inactive; negative”; the mutagenic call (Test System: AMES SALMONELLA TYPHIMURIUM, Strain/Indicator: TA98, Metabolic Activation: RAT, LIVER, S-9, PHENOBARBITAL AND BETA-NAPHTHOFLAVONE, Method: PREINCUBATION) is “active; positive”; the mutagenic call under setting [5] is “inactive; negative”; the mutagenic call (Test System: AMES SALMONELLA TYPHIMURIUM, Strain/Indicator: TA100, Metabolic Activation: RAT, LIVER, S-9, PHENOBARBITAL AND BETA-NAPHTHOFLAVONE, Method: PREINCUBATION) is “active; positive”.
Regarding `COC(=O)[C@@H]1[C@H]2C[C@H]3c4[nH]c5ccccc5c4CCN3C[C@@H]2CC[C@@H]1O`, the mutagenic call by setting is: (Test System: Mouse lymphoma, Strain/Indicator: L5178Y (tk+/tk-), Metabolic Activation: None, Method: Suspension/plate) “inactive; inconclusive (previous evaluation negative)”; (Test System: Mouse lymphoma, Strain/Indicator: L5178Y (tk+/tk-), Metabolic Activation: Rat, Liver, S-9, Aroclor 1254, Method: Suspension/plate) “inactive; inconclusive (previous evaluation negative)”.
